Laboratory results reported in article PMC10909654 (The Journal of Cell Biology, 2024).

How the values were obtained:
FABP7 [1] = target: T1, FABP7 (Homo sapiens, UniProt O15540); experiment: radioligand competition against 3H-cholesterol; format: binding; details: 1.5 µM cholesterol, pH 7.4, 25 °C, competitive
T1 sequence (O15540 2-132): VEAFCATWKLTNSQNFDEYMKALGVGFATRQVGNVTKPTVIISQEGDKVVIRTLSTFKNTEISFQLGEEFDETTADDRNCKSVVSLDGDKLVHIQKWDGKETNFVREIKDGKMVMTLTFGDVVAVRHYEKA

FABP3 [2] = target: T2, FABP3 (Homo sapiens, UniProt P05413); experiment: radioligand binding, Ni bead pull-down, scintillation counting; details: 1.5 µM ligand, 150 nM protein; labelled compound; pH 7.4, 25 °C
FABP8 [3] = target: T3, FABP8 (Homo sapiens, UniProt P02689); experiment: as above; details: 1.5 µM ligand, 150 nM protein; labelled compound; pH 7.4, 25 °C
FABP7 [4] = target: T1, FABP7; details: 0.5 µM protein, 5 mol% DHE in donor liposomes, pH 7.2, 25 °C
FABP3 [5] = target: T2, FABP3; details: 0.5 µM protein, 5 mol% DHE in donor liposomes, pH 7.2, 25 °C
FABP8 [6] = target: T3, FABP8; details: 0.5 µM protein, 5 mol% DHE in donor liposomes, pH 7.2, 25 °C
FABP3 [7] = target: T2, FABP3; experiment: radioligand binding, Ni bead pull-down, scintillation counting; details: 1.5 µM ligand, 150 nM protein; labelled compound; pH 7.4, 25 °C; remark: listed apart in the source
FABP7 [8] = target: T1, FABP7; experiment: as above
FABP8 [9] = target: T3, FABP8; experiment: as above; details: 1.5 µM ligand, 150 nM protein; labelled compound; pH 7.4, 25 °C; remark: listed apart in the source

T2 sequence (P05413 2-133): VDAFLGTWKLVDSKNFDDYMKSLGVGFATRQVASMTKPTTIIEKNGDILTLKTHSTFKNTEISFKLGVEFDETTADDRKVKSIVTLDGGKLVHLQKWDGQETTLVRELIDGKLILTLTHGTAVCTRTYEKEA
T3 sequence (P02689 2-132): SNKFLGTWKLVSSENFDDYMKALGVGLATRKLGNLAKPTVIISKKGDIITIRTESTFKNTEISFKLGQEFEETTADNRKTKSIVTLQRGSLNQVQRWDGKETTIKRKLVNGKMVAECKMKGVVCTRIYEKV

With `CCCCCCCC/C=C\CCCCCCCC(=O)O` [oleic acid] the “relative 3H-cholesterol bound” value (FABP7 [1]; competitor 3.75-15 µM) was “oleic acid was the most potent ligand and showed a dose-dependent competing effect”, the “relative 3H-oleic acid bound” value (FABP3 [2]) was “Both FABP3 and FABP8 could bind oleic acid avidly” and the “relative 3H-oleic acid bound” value (FABP8 [3]) was “Both FABP3 and FABP8 could bind oleic acid avidly”.

With `CC(C)[C@@H](C)/C=C/[C@@H](C)[C@H]1CC[C@H]2C3=CC=C4C[C@@H](O)CC[C@]4(C)C3=CC[C@]12C` [dehydroergosterol] the initial transport rate (FABP7 [4]) was “The purified FABP7 protein promoted DHE transport”, the initial transport rate (FABP3 [5]) was “FABP3 and FABP8 could transfer DHE as efficiently as FABP7” and the initial transport rate (FABP8 [6]) was “FABP3 and FABP8 could transfer DHE as efficiently as FABP7”.

In the case of `CC/C=C\C/C=C\C/C=C\C/C=C\C/C=C\C/C=C\CCC(=O)O` [docosahexaenoic acid], the “relative 3H-cholesterol bound” value (FABP7 [1]; competitor 7.5 µM) is reported as “all the tested fatty acids could compete with ^3H-cholesterol for FABP7 binding”.

In the case of `CCCCC/C=C\C/C=C\C/C=C\C/C=C\CCCC(=O)O` [arachidonic acid], the “relative 3H-cholesterol bound” value (FABP7 [1]; competitor 7.5 µM) is reported as “all the tested fatty acids could compete with ^3H-cholesterol for FABP7 binding”.

With `CCCCCCCCCCCCCCCC(=O)O` [palmitic acid] the “relative 3H-cholesterol bound” value (FABP7 [1]; competitor 7.5 µM) was “all the tested fatty acids could compete with ^3H-cholesterol for FABP7 binding”.

`CC(C)CCC[C@@H](C)[C@H]1CC[C@H]2[C@@H]3CC=C4C[C@@H](O)CC[C@]4(C)[C@H]3CC[C@]12C` [cholesterol] was tested, and the “relative 3H-cholesterol bound” value (FABP3 [7]) was “FABP3 showed modestly yet significantly reduced binding affinity for cholesterol”, the Kd (FABP7 [8]) was 3.04 ± 0.78 µM and the “relative 3H-cholesterol bound” value (FABP8 [9]) was “FABP8 bound cholesterol as potently as FABP7”.
